Test systems include SW-620; MDA-MB-435; U-251; HCC 2998; TK-10; NCI-H226; OVCAR-8; DU-145; SNB-19; OVCAR-5; RXF 393; 786-0; COLO 205; HT-29; HOP-92; BT-549; MDA-MB-231; NCI-H460; Hs-578T.
Common to all, as to assay: NCI tumour cell line growth inhibition, 48 h

Structures are written as SMILES.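 48-hour exposure; five concentrations; linearly interpolated endpoints. Abbreviation: GI50, concentration required for 50% inhibition of growth.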 The source made the active and inactive calls. Rule as the data show it: active = GI50 up to about 1.1 µM and inactive = higher.

As for `ClCc1c(-c2ccccc2)nn(-c2ccccc2)c1CCl`, the GI50 in the test with SW-620 was 2.03 µM (inactive); with MDA-MB-435 it was 1.78 µM (inactive); in the test with U-251, 12.3 µM (inactive); in the test with HCC 2998, 13.9 µM (inactive); in the test with TK-10, 14.6 µM (inactive); with NCI-H226, 26.5 µM (inactive). The GI50 with OVCAR-8 was 14.2 µM (inactive); with DU-145 it was 14 µM (inactive); in the test with SNB-19 it was 18.6 µM (inactive); in the test with OVCAR-5, 19.4 µM (inactive); with RXF 393 it was 12.4 µM (inactive); in the test with 786-0, 9.59 µM (inactive). In addition, the GI50 was 5.94 µM (inactive) in the test on COLO 205; 9.75 µM (inactive) with HT-29; 2.81 µM (inactive) in the test on HOP-92; > 10 µM (inactive) with BT-549; > 10 µM (inactive) in the test with MDA-MB-231.

Take `Cc1c2c3ccccc3nc-2n(C)c2ccccc12`: the GI50 in the test with SW-620 was 1.11 µM (active); in the test on MDA-MB-435 it was 2.9 µM (inactive); in the test on U-251, 2.54 µM (inactive); with HCC 2998, 2.64 µM (inactive); in the test on TK-10, 1.94 µM (inactive); in the test with NCI-H460 it was 0.396 µM (active). Moreover, the GI50 in the test on NCI-H226 was 2.77 µM (inactive); with Hs-578T, 4.8 µM (inactive); with OVCAR-8, 1.69 µM (inactive); in the test on DU-145 it was 3.67 µM (inactive); in the test on SNB-19 it was 5.35 µM (inactive); with OVCAR-5, 2.61 µM (inactive). The GI50 in the test on RXF 393 is 1.99 µM (inactive); with 786-0, 2.02 µM (inactive); in the test on HT-29, 1.34 µM (inactive); in the test on HOP-92, 2.61 µM (inactive); in the test with BT-549, 3.71 µM (inactive).

On to `Clc1cccc(-c2nc3cccc4c3n2Cc2ncccc2-4)c1`, for which the GI50 with SW-620 was > 100 µM (inactive); in the test on MDA-MB-435 it was > 100 µM (inactive); with U-251, 30.3 µM (inactive); with HCC 2998, > 100 µM (inactive); in the test on TK-10, 42.2 µM (inactive); with NCI-H460 it was 6.67 µM (inactive). Besides, the GI50 in the test on NCI-H226 was 11.8 µM (inactive); in the test on OVCAR-8 it was 92.3 µM (inactive); in the test on DU-145 it was > 100 µM (inactive); in the test on SNB-19 it was 23.9 µM (inactive); with OVCAR-5, > 100 µM (inactive); with RXF 393 it was 21.9 µM (inactive). The GI50 is 17.6 µM (inactive) with 786-0; > 100 µM (inactive) in the test on COLO 205; > 100 µM (inactive) in the test on HT-29; 44.6 µM (inactive) with HOP-92; > 100 µM (inactive) with BT-549; 94.2 µM (inactive) with MDA-MB-231.

In the case of `CN1C(=O)c2c(c3c4ccccc4n(C)c3c3c2c2ccccc2n3C)C1=O`, the GI50 in the test with SW-620, in the test on MDA-MB-435, in the test on U-251, in the test on HCC 2998, in the test with TK-10 and in the test with NCI-H460 was > 100 µM (inactive) in each case. Moreover, the GI50 with NCI-H226, in the test with OVCAR-8, with DU-145, in the test on SNB-19, in the test on OVCAR-5 and with 786-0 was > 100 µM (inactive) throughout. Further, the GI50 in the test with COLO 205, with HT-29, with HOP-92, in the test on BT-549 and in the test on MDA-MB-231 was > 100 µM (inactive) in each case.

`CC12CCC(C/C1=N\NC(N)=O)C2(C)C` (configuration not stated): the GI50 with SW-620, in the test with MDA-MB-435, with U-251, in the test with TK-10, in the test with NCI-H460 and in the test with NCI-H226 was > 100 µM (inactive) in each case. Besides, the GI50 with Hs-578T, in the test on OVCAR-8, in the test with DU-145, in the test on SNB-19, with OVCAR-5 and in the test on 786-0 was > 100 µM (inactive) throughout. Also, the GI50 in the test on COLO 205, in the test on HT-29, in the test on HOP-92 and in the test with BT-549 was > 100 µM (inactive) each time.

For the compound `COC(=O)C(Cc1c[nH]c2ccccc12)NP(=O)(O)OCC1OC(n2cc(I)c(=O)[nH]c2=O)CC1O` (configuration not stated), the GI50 with SW-620, in the test on MDA-MB-435, with U-251, with TK-10, with NCI-H460 and in the test on NCI-H226 was > 100 µM (inactive) throughout. For the same compound, the GI50 in the test with Hs-578T, in the test on OVCAR-8, in the test with DU-145, in the test with SNB-19, with OVCAR-5 and in the test on 786-0 was > 100 µM (inactive) in each case. Moreover, the GI50 with COLO 205, in the test with HT-29, in the test on HOP-92, in the test with BT-549 and in the test with MDA-MB-231 was > 100 µM (inactive) in each case.

`CC1(C)CC(=O)C(Cc2ccccc2)(Cc2ccccc2)C(=O)C1`: the GI50 in the test on SW-620, in the test with U-251, in the test with HCC 2998, with TK-10, in the test with NCI-H460 and in the test on NCI-H226 was > 100 µM (inactive) in each case. Further, the GI50 with Hs-578T was 29.2 µM (inactive); in the test with OVCAR-8, > 100 µM (inactive); in the test with DU-145, > 100 µM (inactive); with SNB-19 it was > 100 µM (inactive); with OVCAR-5, > 100 µM (inactive); in the test on RXF 393, 33.8 µM (inactive). For the same compound, the GI50 with 786-0, with COLO 205, in the test with HT-29, with BT-549 and with MDA-MB-231 was > 100 µM (inactive) each time.

On to `O=c1c(C(c2cnc3ccccc3c2)c2c(O)oc3ccccc3c2=O)c(O)oc2ccccc12`, for which the GI50 with SW-620 is 29.6 µM (inactive); in the test on MDA-MB-435, 36.3 µM (inactive); with U-251 it was 29 µM (inactive); in the test on TK-10 it was 49.4 µM (inactive); in the test with NCI-H460, 27.6 µM (inactive); in the test with NCI-H226, 23.1 µM (inactive). Further, the GI50 was 22.4 µM (inactive) with Hs-578T; 33 µM (inactive) in the test with OVCAR-8; > 100 µM (inactive) in the test on DU-145; 23.2 µM (inactive) with SNB-19; 44.5 µM (inactive) in the test with 786-0; 60.7 µM (inactive) in the test with COLO 205. The GI50 in the test with HT-29 was 33.4 µM (inactive); with HOP-92, 20.2 µM (inactive); with BT-549, 20.7 µM (inactive); in the test with MDA-MB-231, 92.7 µM (inactive).

For `CC1(C)OC(=O)C(Cc2ccccc2)(Cc2ccccc2)C(=O)O1`, the GI50 with SW-620, in the test with U-251, in the test on HCC 2998, with TK-10, with NCI-H460 and in the test on NCI-H226 was > 100 µM (inactive) in each case. Further, the GI50 with Hs-578T was > 100 µM (inactive); with OVCAR-8 it was > 100 µM (inactive); in the test on DU-145, > 100 µM (inactive); in the test on SNB-19, > 10 µM (inactive); in the test with OVCAR-5 it was > 100 µM (inactive); in the test with RXF 393, 3.58 µM (inactive). Moreover, the GI50 in the test on 786-0, in the test on COLO 205, in the test on HT-29, in the test with BT-549 and in the test with MDA-MB-231 was > 100 µM (inactive) each time.

Values taken from ChEMBL document CHEMBL1201862, “PubChem BioAssay data set” (2004).
